Test results from patent US4345938A, “Herbicidal 2-haloacetanilides” (Monsanto Company, priority 1980, dated 1982).
Where two headings read alike, the source gives them in different places.

Legend:
Type in all cases: in vivo
[1] = test system: Sagittaria trifolia; experiment: Field transplant rice test, applied 9 DAT, ST; settings: 216 h, read-out: Percent Inhibition, ST; for inhibition at 375 g/ha: 0.375 Kg/Ha; for inhibition at 750 g/ha: 0.75 Kg/Ha; for inhibition at 1500 g/ha: 1.5 Kg/Ha; for inhibition at 3000 g/ha: 3.0 Kg/Ha
Description: (§1) The test data in Table III for all compounds was obtained under identical test conditions. The weeds used in the tests herein have the following abbreviations in the tables: Echinochloa crus-galli (EC), Monochloria vaginalis (MV), Cyperus Serotinus (CS), Eleocharis Kuroguwai (EK) and Sagittaria trifolia (ST).
(§2) In further comparative tests, a preferred compound of this invention (Example 1) was tested in the field with prior art Compounds A-D. These tests were conducted under conditions reflecting herbicide application times generally favorable to all herbicides in the test. The timing of application of herbicides to transplant rice is very important, whether, as in some instances, prior to transplanting the rice; in other instances, at the time of transplanting or else after transplanting. Application times are conventionally referred to as "days before transplant" (DBT) or "days after transplant" ("DAT"). The field test data in Table IV was obtained from a test in which the herbicides were applied at the time of transplant, i.e., "0 DAT", with observations being made weekly up to six weeks after transplant ("WAT") beginning at two weeks after transplant; for illustrative and representative purposes, only the early, middle and late period observations, i.e., 2 WAT, 4 WAT and 6 WAT, are shown in Table IV. The data in Table IV is for rates of application common to all herbicides in the test, i.e., from 3.0 kg/ha (2.67 lb/A) down to 0.375 kg/ha (0.34 lb/A). All herbicides were applied at their actual or expected use rates, i.e., as granules containing 2.5% by weight herbicide for the compound of Example 1, Compounds B, C and D and 5.0% by weight for Compound A.
(§3) In Table V are presented field data showing the relative performance of the compound of Example 1 and Compounds A-D applied 9 DAT, with observations being made weekly from 3 WAT to 7 WAT; again, for illustrative and representative purposes, only the early, middle and late period observations are reported in Table V, the herbicide rates and concentrations of active ingredients the same as is shown in Table IV.

[2] = test system: Echinochloa crus-galli; experiment: Field transplant rice test, applied 0 DAT, EC; settings: 0 h, read-out: Percent Inhibition, EC; for inhibition at 375 g/ha: 0.375 Kg/Ha; for inhibition at 750 g/ha: 0.75 Kg/Ha; for inhibition at 1500 g/ha: 1.5 Kg/Ha; for inhibition at 3000 g/ha: 3.0 Kg/Ha
Description: as §1, §2

[3] = test system: Rice; experiment: Field transplant rice test, applied 9 DAT, rice injury; settings: Oryza sativa, 216 h, read-out: Percent Inhibition, Rice; for inhibition at 375 g/ha: 0.375 Kg/Ha; for inhibition at 750 g/ha: 0.75 Kg/Ha; for inhibition at 1500 g/ha: 1.5 Kg/Ha; for inhibition at 3000 g/ha: 3.0 Kg/Ha
Description: as §2, §3

[4] = test system: Eleocharis kuroguwai; experiment: Field transplant rice test, applied 0 DAT, EK; settings: 0 h, read-out: Percent Inhibition, EK; for inhibition at 375 g/ha: 0.375 Kg/Ha; for inhibition at 750 g/ha: 0.75 Kg/Ha; for inhibition at 1500 g/ha: 1.5 Kg/Ha; for inhibition at 3000 g/ha: 3.0 Kg/Ha
Description: as §1, §2

[5] = test system: Eleocharis kuroguwai; experiment: Field transplant rice test, applied 9 DAT, EK; settings: for inhibition at 375 g/ha / inhibition at 750 g/ha / inhibition at 1500 g/ha / inhibition at 3000 g/ha: Eleocharis kuroguwai, 216 h, read-out: Percent Inhibition, EK; for inhibition at 375 g/ha: 0.375 Kg/Ha; for inhibition at 750 g/ha: 0.75 Kg/Ha; for inhibition at 1500 g/ha: 1.5 Kg/Ha; for inhibition at 3000 g/ha: 3.0 Kg/Ha
Text: In the discussion of data below, occasional reference is made to herbicide application rates symbolized as "GR15 " and "GR85 "; these rates are given in kilograms per hectare (kg/ha) which are convertible into pounds per acre (lbs/A) by dividing the kg/ha rate by 1.12.
A further guide to the effectiveness of a chemical as a selective herbicide is the "selectivity factor" ("SF") for a herbicide in given crops and weeds. The selectivity factor is a measure of the relative degree of crop safety and weed injury and is expressed in terms of the GR15 /GR85 ratio, i.e., the GR15 rate for the crop divided by the GR85 rate for the weed, both rates in kg/ha (lb/A.)
as §1, §2, §3

## CCCCOCCN(C(=O)CCl)c1c(CC)cccc1CC [Compound B, 2',6'-diethyl-N-(n-butoxyethyl)-2-chloroacetanilide]
[1]; 3 WAT
  inhibition at 375 g/ha: 5%
  inhibition at 750 g/ha: 38%
  inhibition at 1500 g/ha: 40%
  inhibition at 3000 g/ha: 42%
[1]; 5 WAT
  inhibition at 375 g/ha: 2%
  inhibition at 750 g/ha: 12%
  inhibition at 1500 g/ha: 25%
  inhibition at 3000 g/ha: 25%
[1]; 7 WAT
  inhibition at 375 g/ha: 5%
  inhibition at 750 g/ha: 10%
  inhibition at 1500 g/ha: 13%
  inhibition at 3000 g/ha: 12%
[2]; 2 WAT
  inhibition at 375 g/ha: 55%
  inhibition at 750 g/ha: 87%
  inhibition at 1500 g/ha: 90%
  inhibition at 3000 g/ha: 97%
[2]; 4 WAT
  inhibition at 375 g/ha: 68%
  inhibition at 750 g/ha: 93%
  inhibition at 1500 g/ha: 98%
  inhibition at 3000 g/ha: 100%
[2]; 6 WAT
  inhibition at 375 g/ha: 37%
  inhibition at 750 g/ha: 88%
  inhibition at 1500 g/ha: 98%
  inhibition at 3000 g/ha: 100%
[3]; 3 WAT
  inhibition at 375 g/ha: 12%
  inhibition at 750 g/ha: 12%
  inhibition at 1500 g/ha: 10%
  inhibition at 3000 g/ha: 12%
[3]; 5 WAT
  inhibition at 375 g/ha: 0%
  inhibition at 750 g/ha: 5%
  inhibition at 1500 g/ha: 2%
  inhibition at 3000 g/ha: 5%
[3]; 7 WAT
  inhibition at 375 g/ha: 5%
  inhibition at 750 g/ha: 3%
  inhibition at 1500 g/ha: 5%
  inhibition at 3000 g/ha: 2%
[4]; 2 WAT
  inhibition at 375 g/ha: 48%
  inhibition at 750 g/ha: 63%
  inhibition at 1500 g/ha: 73%
  inhibition at 3000 g/ha: 100%
[4]; 4 WAT
  inhibition at 375 g/ha: 37%
  inhibition at 750 g/ha: 42%
  inhibition at 1500 g/ha: 65%
  inhibition at 3000 g/ha: 94%
[4]; 6 WAT
  inhibition at 375 g/ha: 7%
  inhibition at 750 g/ha: 0%
  inhibition at 1500 g/ha: 17%
  inhibition at 3000 g/ha: 72%
[5]; 3 WAT
  selectivity factor (GR15/GR85), EK in transplant rice: non-selective
  inhibition at 375 g/ha: 27%
  inhibition at 750 g/ha: 28%
  inhibition at 1500 g/ha: 42%
  inhibition at 3000 g/ha: 55%
[5]; 5 WAT
  inhibition at 375 g/ha: 3%
  inhibition at 750 g/ha: 5%
  inhibition at 1500 g/ha: 32%
  inhibition at 3000 g/ha: 43%
[5]; 7 WAT
  inhibition at 375 g/ha: 0%
  inhibition at 750 g/ha: 0%
  inhibition at 1500 g/ha: 0%
  inhibition at 3000 g/ha: 18%

## CCCCOCN(C(=O)CCl)c1c(C)cccc1C(C)(C)C [Compound C, 2'-methyl-6'-tert-butyl-N-(n-butoxymethyl)-2-chloroacetanilide]
[1]; 3 WAT
  inhibition at 375 g/ha: 47%
  inhibition at 750 g/ha: 32%
  inhibition at 1500 g/ha: 48%
  inhibition at 3000 g/ha: 30%
[1]; 5 WAT
  inhibition at 375 g/ha: 10%
  inhibition at 750 g/ha: 8%
  inhibition at 1500 g/ha: 17%
  inhibition at 3000 g/ha: 13%
[1]; 7 WAT
  inhibition at 375 g/ha: 2%
  inhibition at 750 g/ha: 0%
  inhibition at 1500 g/ha: 7%
  inhibition at 3000 g/ha: 3%
[2]; 2 WAT
  inhibition at 375 g/ha: 98%
  inhibition at 750 g/ha: 100%
  inhibition at 1500 g/ha: 100%
  inhibition at 3000 g/ha: 98%
[2]; 4 WAT
  inhibition at 375 g/ha: 100%
  inhibition at 750 g/ha: 100%
  inhibition at 1500 g/ha: 100%
  inhibition at 3000 g/ha: 100%
[2]; 6 WAT
  inhibition at 375 g/ha: 98%
  inhibition at 750 g/ha: 100%
  inhibition at 1500 g/ha: 100%
  inhibition at 3000 g/ha: 100%
[3]; 3 WAT
  inhibition at 375 g/ha: 17%
  inhibition at 750 g/ha: 10%
  inhibition at 1500 g/ha: 18%
  inhibition at 3000 g/ha: 10%
[3]; 5 WAT
  inhibition at 375 g/ha: 8%
  inhibition at 750 g/ha: 7%
  inhibition at 1500 g/ha: 15%
  inhibition at 3000 g/ha: 5%
[3]; 7 WAT
  inhibition at 375 g/ha: 10%
  inhibition at 750 g/ha: 8%
  inhibition at 1500 g/ha: 13%
  inhibition at 3000 g/ha: 8%
[4]; 2 WAT
  inhibition at 375 g/ha: 63%
  inhibition at 750 g/ha: 68%
  inhibition at 1500 g/ha: 85%
  inhibition at 3000 g/ha: 82%
[4]; 4 WAT
  inhibition at 375 g/ha: 52%
  inhibition at 750 g/ha: 58%
  inhibition at 1500 g/ha: 93%
  inhibition at 3000 g/ha: 90%
[4]; 6 WAT
  inhibition at 375 g/ha: 18%
  inhibition at 750 g/ha: 18%
  inhibition at 1500 g/ha: 67%
  inhibition at 3000 g/ha: 80%
[5]; 3 WAT
  inhibition at 375 g/ha: 52%
  inhibition at 750 g/ha: 75%
  inhibition at 1500 g/ha: 70%
  inhibition at 3000 g/ha: 83%
[5]; 5 WAT
  inhibition at 375 g/ha: 23%
  inhibition at 750 g/ha: 68%
  inhibition at 1500 g/ha: 77%
  inhibition at 3000 g/ha: 93%
[5]; 7 WAT
  inhibition at 375 g/ha: 15%
  inhibition at 750 g/ha: 32%
  inhibition at 1500 g/ha: 38%
  inhibition at 3000 g/ha: 74%
[5]; at 5 WAT
  selectivity factor (GR15/GR85), EK in transplant rice: greater than 1
